Results taken from patent publication US20190167561A1, “METHODS AND COMPOSITIONS FOR REDUCING THE GRAYING OF HAIR” (Natura Cosmeticos SA, priority 2016, published 2019).

Experiments:
[1] = tested on: human primary hair follicles (melanocyte stem cells at the bulge area); assay: Pigmentation assay on isolated human primary hair follicles in culture, H2O2 stress; format: cell-based; details: positive control, 3% H2O2
Text: A novel platform for assaying human primary hair follicles in culture was developed to profile anti-graying potentially active agents (see FIG. 1). Normal human scalp specimens were obtained from various surgeries or from donor and recipient scalp hair derived from plastic surgery. […] Intact human skin specimens were implanted in semi-solid agarose (2% agarose diluted with Williams' medium E (Gibco™) at 1:5 ratio). The hair follicle culture medium was based on Williams' medium E (Gibco™) supplemented with 2 mmol/L L-glutamine, hydrocortisone 10 ng/ml, insulin 10 μg/ml, penicillin 100 U/ml, streptomycin 100 μg/ml, and amphotericin B 25 μg/ml. To maximize the effects of the test formulations and to exclude the variability of delivery ability of the formulations through the epidermis, the test formulations were applied directly at the bulge area of the follicles using the method as follows: (1) tissue preparation and culture for 8-24 hrs. (2) Isolation of individual follicles (3) Vertically embedding in semisolid media (4) Treatment with test formulation/Positive control on the bulge area of the hair follicles (5) Incubation for 24 hrs. (6) 3% H2O2 treatment (7) Incubation for 2 hrs. (8) Repositioning in semisolid media (9) Z-stacking imaging & Analysis on day 1, 3, 7 after H2O2 treatment For the experiment, a total of 602 follicles from 9 different donors were utilized. […]

ROS in hair follicles = assay: Reactive Oxygen Species (ROS) assay on individual follicles; format: cell-based, human; details: NAC pretreatment, ionizing radiation 4, 8 or 12 Gy or 3% H2O2; ROS labeling 2 hours after treatment; compared to IR or H2O2 alone
Experimental: A Reactive Oxygen Species (ROS) assay was used for individual follicle observation with 5-(and-6)-chloromethyl-2′,7′-dichlorodihydrofluorescein diacetate, acetyl ester (CM-H2DCFDA). CM-H2DCFDA is a chloromethyl derivative of […], 2′,7′-dichlorohydrofluorescein diacetate (H2DCFDA), and is useful as an indicator for general ROS in cells. ROS should be labeled after 2 hours and imaged in 20 minutes, and the protocol included dissection of the follicles first before H2O2 treatment. […] The ROS detection protocol was as follows: (1) tissue preparation and culture (2) Isolation of individual follicles (3) Vertically embedding in semisolid media (4) Antioxidant treatment (NAC) on the bulge area of the hair follicles (5) Incubation for […]. (6) Treatment with ionizing radiation (e.g., 8.0 Gray) or H2O2 (7) Incubation for 2 hrs. […] NAC was applied for 24 hours before the ionizing radiation or H2O2 treatment and then 2 hours after treatment, ROS labeling and imaging have been done. The ionizing radiation was administered at doses of 4 gy, 8 Gy, or 12 Gy. Topical administration of hydrogen peroxide was used at a dose of 3%. The ROS positive cells were counted and they were normalized to DAPI positive cells.

hair follicles = assay: Pigmented cell counts after NAC treatment (FIG. 12); format: cell-based, human; details: statistical significance not evaluable
[2] = tested on: melanocyte stem cells (MSCs) in the bulge areas of hair follicles of human scalp skin; assay: Melanocyte stem cell damage and pigmentation assay, topical application on intact human skin specimens; format: cell-based; details: topical 24 hours, then 3% H2O2 24 hours; eight follicles per treatment
Experimental: Formulation A, placebo A, or the positive control (CPC) were topically applied to the human skin specimens for 24 hours. The specimens were next treated with 3% hydrogen peroxide (H2O2) for 24 hours at 37° C. and incubated in 5% CO2 to trigger the DNA-damage response. After 24 hours of hydrogen peroxide treatment, all portions of the hair follicles were isolated from stress treated human skin scalp. Upon isolation, the hair follicles were washed gently several times in Phosphate-buffered saline (PBS) and transferred intact into soft agar with fresh growth medium in a cell culture incubator at 37° C. and 5% CO2. Hair follicles were examined under bright field microscopy after completion of the hydrogen peroxide treatment daily from day 0 (completion of peroxide treatment) to day 7. Pigmented melanocyte stem cells (MSCs) found in the bulge areas of hair follicles were counted in the bright field view. Formulation A and Placebo A, and the positive control (CPC) were tested, and eight follicles were investigated from each treatment. Paired T-test was applied for data analysis. […] P-value of 0.05 was set as the threshold of statistical significance. […] Eight follicles were analyzed in each test set.

CC(=O)N[C@@H](CS)C(=O)O [NAC, N-acetyl-cysteine]
pigmentation prevention at the bulge area of the follicle [1]: effective on the pigmentation prevention with statistical significance
ROS generation (ROS positive cells normalized to DAPI positive cells) (ROS in hair follicles): decreased compared to IR or H2O2 treatment alone
pigmented cell counts after the NAC treatment (hair follicles): tendency showing decreased pigmented cell counts
hydrogen peroxide-induced pigmentation [2]: suppressed
